# Data as given in patent publication US20140187548A1, “6 SUBSTITUTED IMIDAZOPYRAZINES FOR USE AS MPS-1 AND TKK INHIBITORS IN THE TREATMENT OF HYPERPROLIFERATIVE DISORDERS” (BAYER INTELLECTUAL PROPERTY GMBH, priority 2010, published 2014).
# pIC50: −log10 of the molar value.
# Target: T1, human kinase Mps-1 (Homo sapiens, UniProt P33981)
# T1 construct: N-terminally GST-tagged human full length recombinant Mps-1 kinase; GST (N); purchased Invitrogen, Karslruhe, Germany PV4071
# T1 sequence (P33981 1-857): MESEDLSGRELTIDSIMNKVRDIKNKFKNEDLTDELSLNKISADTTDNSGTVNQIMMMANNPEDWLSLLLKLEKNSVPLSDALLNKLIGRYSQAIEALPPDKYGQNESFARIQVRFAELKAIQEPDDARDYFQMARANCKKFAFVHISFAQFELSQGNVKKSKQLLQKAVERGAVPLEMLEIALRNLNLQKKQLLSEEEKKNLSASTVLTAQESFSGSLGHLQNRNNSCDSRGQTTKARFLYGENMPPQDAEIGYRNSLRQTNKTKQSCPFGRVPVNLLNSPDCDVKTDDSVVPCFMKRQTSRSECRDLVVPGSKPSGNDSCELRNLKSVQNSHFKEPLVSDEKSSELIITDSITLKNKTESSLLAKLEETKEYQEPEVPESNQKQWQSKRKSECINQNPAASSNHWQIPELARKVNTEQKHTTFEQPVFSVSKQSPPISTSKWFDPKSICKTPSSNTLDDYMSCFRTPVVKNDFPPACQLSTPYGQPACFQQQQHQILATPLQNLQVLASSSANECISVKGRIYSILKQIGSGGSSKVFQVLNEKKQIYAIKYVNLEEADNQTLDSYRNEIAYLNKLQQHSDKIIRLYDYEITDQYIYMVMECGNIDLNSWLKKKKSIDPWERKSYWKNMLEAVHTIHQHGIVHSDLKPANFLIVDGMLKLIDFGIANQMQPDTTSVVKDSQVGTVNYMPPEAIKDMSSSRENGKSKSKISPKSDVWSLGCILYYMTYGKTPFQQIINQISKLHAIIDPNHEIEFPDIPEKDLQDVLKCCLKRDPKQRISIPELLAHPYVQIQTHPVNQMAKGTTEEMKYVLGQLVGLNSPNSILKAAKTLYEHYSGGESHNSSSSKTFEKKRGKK
# Assay: Mps-1 kinase assay (TR-FRET)
# Assay type: biochemical
# Details: N-terminally GST-tagged human full length recombinant Mps-1; 10 μM ATP; 1 μM peptide substrate; 15 min pre-incubation; 60 min at 22° C.
# In short: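 N-terminally GST-tagged full-length recombinant human Mps-1, about 1 nM final, phosphorylates a biotinylated peptide. Product detected by TR-FRET from Eu-anti-phospho-Ser/Thr antibody to streptavidin-XLent after 1 h at 22° C.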
row,pIC50,SMILES
1,7.92,"Cc1cn2c(-c3ccc(C(=O)NC4CC4)cc3)cnc2c(NCC(C)C)n1 [Example 1-88, N-cyclopropyl-4-{6-methyl-8-[(2-methyl-propyl)amino]imidazo [1,2-a]pyrazin-3-yl} benzamide]"
2,8.70,"CC(C)CNc1nc(-c2ccc(N3CCNCC3)cc2)cn2c(-c3ccc(C(=O)NC4CC4)cc3)cnc12 [Example 1-89, N-cyclopropyl-4-{8-[(2-methylpropyl)amino]-6-[4-(piperazin-1-yl)phenyl]imidazo[1,2-a]pyrazin-3-yl}benzamide]"
3,8.80,"CC(C)CNc1nc(-c2ccc(N3CCN(C)CC3)cc2)cn2c(-c3ccc(C(=O)NC4CC4)cc3)cnc12 [Example 1-90, N-cyclopropyl-4-{6-[4-(4-methylpiperazin-1-yl)phenyl]-8-[(2-methyl-propyl)amino]imidazo [1,2-a]pyrazin-3-yl} benzamide]"
4,8.82,"CC(C)CNc1nc(-c2ccc(N3CCOCC3)cc2)cn2c(-c3ccc(C(=O)NC4CC4)cc3)cnc12 [Example 1-91, N-cyclopropyl-4-{8-[(2-methylpropyl)amino]-6-[4-(morpholin-4-yl)phenyl]imidazo[1,2-a]pyrazin-3-yl}benzamide]"
5,8.12,"CC(C)CNc1nc(-c2ccc(N(C)C)cc2)cn2c(-c3ccc(C(=O)NC4CC4)cc3)cnc12 [Example 1-92, N-cyclopropyl-4-{6-[4-(dimethylamino)phenyl]-8-[(2-methylpropyl)amino]imidazo[1,2-a]pyrazin-3-yl}benzamide]"
6,7.74,"CC(C)CNc1nc(-c2ccc(F)cc2)cn2c(-c3ccc(C(=O)NC4CC4)c(Cl)c3)cnc12 [Example 1-93, 2-chloro-N-cyclopropyl-4-{6-(4-fluorophenyl)-8-[(2-methylpropyl)amino]imidazo[1,2-a]pyrazin-3-yl}benzamide]"
7,7.70,"CC(C)CNc1nc(-c2ccc(N(C)C)cc2)cn2c(-c3ccc(C(=O)NC4CC4)c(Cl)c3)cnc12 [Example 1-94, 2-chloro-N-cyclopropyl-4-{6-[4-(dimethylamino)phenyl]-8-[(2-methyl-propyl)amino]imidazo [1,2-a]pyrazin-3-yl} benzamide]"
8,8.28,"CC(C)CNc1nc(-c2ccccc2CO)cn2c(-c3ccc(C(=O)NC4CC4)c(Cl)c3)cnc12 [Example 1-95, 2-chloro-N-cyclopropyl-4-{6-[2-(hydroxymethyl)phenyl]-8-[(2-methyl-propyl)amino]imidazo [1,2-a]pyrazin-3-yl} benzamide]"
9,7.65,"CN(C)c1ccc(-c2cn3c(-c4ccc(C(=O)NC5CC5)c(Cl)c4)cnc3c(NCCC(F)(F)F)n2)cc1 [Example 1-96, 2-chloro-N-cyclopropyl-4-{6-[4-(dimethylamino)phenyl]-8-[(3,3,3-trifluoropropyl)amino]imidazo[1,2-a]pyrazin-3-yl}benzamide]"
10,8.29,"O=C(NC1CC1)c1ccc(-c2cnc3c(NCCC(F)(F)F)nc(-c4ccccc4CO)cn23)cc1Cl [Example 1-97, 2-chloro-N-cyclopropyl-4-{6-[2-(hydroxymethyl)phenyl]-8-[(3,3,3-trifluoropropyl)amino]imidazo[1,2-a]pyrazin-3-yl}benzamide]"
11,7.89,"CC(C)(O)CNc1nc(-c2ccc(F)cc2)cn2c(-c3ccc(C(=O)NC4CC4)c(Cl)c3)cnc12 [Example 1-98, 2-chloro-N-cyclopropyl-4-{6-(4-fluorophenyl)-8-[(2-hydroxy-2-methyl-propyl)amino]imidazo [1,2-a]pyrazin-3-yl} benzamide]"
12,7.51,"CN(C)c1ccc(-c2cn3c(-c4ccc(C(=O)NC5CC5)c(Cl)c4)cnc3c(NCC(C)(C)O)n2)cc1 [Example 1-99, 2-chloro-N-cyclopropyl-4-{6-[4-(dimethylamino)phenyl]-8-[(2-hydroxy-2-methylpropyl)amino]imidazo[1,2-a]pyrazin-3-yl}benzamide]"
13,7.06,"CC(C)(O)CNc1nc(-c2ccccc2CO)cn2c(-c3ccc(C(=O)NC4CC4)c(Cl)c3)cnc12 [Example 1-100, 2-chloro-N-cyclopropyl-4-{6-[2-(hydroxymethyl)phenyl]-8-[(2-hydroxy-2-methylpropyl)amino]imidazo[1,2-a]pyrazin-3-yl}benzamide]"
14,7.04,"CC(C)(O)CNc1nc(-c2ccn[nH]2)cn2c(-c3ccc(C(=O)NC4CC4)c(Cl)c3)cnc12 [Example 1-101, 2-chloro-N-cyclopropyl-4-{8-[(2-hydroxy-2-methyl-propyl)amino]-6-(1H-pyrazol-5-yl)imidazo [1,2-a]pyrazin-3-yl} benzamide]"
15,7.00,"CC(C)(O)CNc1nc(C2=CCOCC2)cn2c(-c3ccc(C(=O)NC4CC4)c(Cl)c3)cnc12 [Example 1-102, 2-chloro-N-cyclopropyl-4-{6-(3,6-dihydro-2H-pyran-4-yl)-8-[(2-hydroxy-2-methylpropyl)amino]imidazo[1,2-a]pyrazin-3-yl}benzamide]"
16,7.54,"O=C(NC1CC1)c1ccc(-c2cnc3c(NCC4CCCO4)nc(-c4ccc(F)cc4)cn23)cc1Cl (centres unmarked) [Example 1-103, 2-chloro-N-cyclopropyl-4-{6-(4-fluorophenyl)-8-[(tetrahydrofuran-2-ylmethyl)amino]imidazo [1,2-a]pyrazin-3-yl} benzamide]"
17,7.11,"CN(C)c1ccc(-c2cn3c(-c4ccc(C(=O)NC5CC5)c(Cl)c4)cnc3c(NCC3CCCO3)n2)cc1 (centres unmarked) [Example 1-105, 2-chloro-N-cyclopropyl-4-{6-[4-(dimethylamino)phenyl]-8-[(tetrahydro-furan-2-ylmethyl)amino]imidazo[1,2-a]pyrazin-3-yl}benzamide]"
18,7.25,"O=C(NC1CC1)c1ccc(-c2cnc3c(NCC4CCCO4)nc(-c4ccccc4CO)cn23)cc1Cl (centres unmarked) [Example 1-106, 2-chloro-N-cyclopropyl-4-{6-[2-(hydroxymethyl)phenyl]-8-[(tetrahydro-furan-2-ylmethyl)amino]imidazo[1,2-a]pyrazin-3-yl}benzamide]"
19,7.88,"Cn1nccc1CNc1nc(-c2ccc(F)cc2)cn2c(-c3ccc(C(=O)NC4CC4)c(Cl)c3)cnc12 [Example 1-107, 2-chloro-N-cyclopropyl-4-[6-(4-fluorophenyl)-8-{[(1-methyl-1H-pyrazol-5-yl)methyl]amino}imidazo[1,2-a]pyrazin-3-yl]benzamide]"
20,7.36,"CN(C)c1ccc(-c2cn3c(-c4ccc(C(=O)NC5CC5)c(Cl)c4)cnc3c(NCc3ccnn3C)n2)cc1 [Example 1-108, 2-chloro-N-cyclopropyl-4-(6-[4-(dimethylamino)phenyl]-8-{[(1-methyl-1H-pyrazol-5-yl)methyl]amino}imidazo [1,2-a]pyrazin-3-yl) benzamide]"
21,8.28,"CC(C)CNc1nc(-c2ccc(F)cc2)cn2c(-c3ccc(C(=O)NC4CC4)c(F)c3)cnc12 [Example 1-109, N-cyclopropyl-2-fluoro-4-{6-(4-fluorophenyl)-8-[(2-methylpropyl)amino]imidazo[1,2-a]pyrazin-3-yl}benzamide]"
22,7.90,"CC(C)CNc1nc(-c2ccc(N(C)C)cc2)cn2c(-c3ccc(C(=O)NC4CC4)c(F)c3)cnc12 [Example 1-110, N-cyclopropyl-4-{6-[4-(dimethylamino)phenyl]-8-[(2-methylpropyl)amino]imidazo[1,2-a]pyrazin-3-yl}-2-fluoro-benzamide]"
23,8.52,"CC(C)CNc1nc(-c2ccccc2CO)cn2c(-c3ccc(C(=O)NC4CC4)c(F)c3)cnc12 [Example 1-111, N-cyclopropyl-2-fluoro-4-{6-[2-(hydroxymethyl)phenyl]-8-[(2-methyl-propyl)amino]imidazo [1,2-a]pyrazin-3-yl} benzamide]"
24,8.59,"O=C(NC1CC1)c1ccc(-c2cnc3c(NCCC(F)(F)F)nc(-c4ccc(F)cc4)cn23)cc1F [Example 1-112, N-cyclopropyl-2-fluoro-4-{6-(4-fluorophenyl)-8-[(3,3,3-trifluoropropyl)amino]imidazo[1,2-a]pyrazin-3-yl}benzamide]"
25,7.95,"CN(C)c1ccc(-c2cn3c(-c4ccc(C(=O)NC5CC5)c(F)c4)cnc3c(NCCC(F)(F)F)n2)cc1 [Example 1-113, N-cyclopropyl-4-{6-[4-(dimethylamino)phenyl]-8-[(3,3,3-trifluoropropyl)amino]imidazo[1,2-a]pyrazin-3-yl}-2-fluoro-benzamide]"
26,8.46,"O=C(NC1CC1)c1ccc(-c2cnc3c(NCCC(F)(F)F)nc(-c4ccccc4CO)cn23)cc1F [Example 1-114, N-cyclopropyl-2-fluoro-4-{6-[2-(hydroxymethyl)phenyl]-8-[(3,3,3-tri-fluoropropyl)amino]imidazo[1,2-a]pyrazin-3-yl}benzamide]"
